According to patent publication US20060046972A1, “Cytotoxic nucleoside analog compound 003 for treating cancer” (Parker Hughes Institute, priority 2004, published 2006):
Where “and” joins values, the source holds several entries; their conditions need not be identical. Identical values can stand only once.

Test system: CD-1 mice
Experiment: Acute toxicity of intraperitoneal bolus doses in CD-1 mice
Format: in vivo
Conditions: for tubular dilation: after the 30 day observation period
Experimental: 1.2.8 Animals Female CD-1 mice (Body weight: ˜25 g; Age: 7 week old) were purchased, from Charles River Laboratories (Willmington, Mass., USA). MMTV Neu-mice [FVB/N-TgN(MMTV neu)202MUL; Jackson Laboratory, Bar Harbor, Me.] were bred to produce multiple litters. All mice were housed in microisolator cages (Lab Products, Inc., Maywood, N.Y., USA) containing autoclaved bedding in a controlled specific pathogen-free (SPF) environment (12-h light/12-h dark photoperiod, 22±1° C., 60±10% relative humidity), which is fully accredited by the USDA (United States Department of Agriculture). Adult male Lewis rats (Body weight: ˜160 g) were obtained from the specific pathogen-free (SPF) breeding facilities of Harlan Sprague Dawley (Indianapolis, Id., USA) at 14 weeks of age. All husbandry and experimental contact made with the mice and rats maintained SPF conditions. The rats were kept in microisolater cages (Allentown Caging Equipment Co., Inc., Allentown, N.J., USA) containing autoclaved food, water, and bedding. Animal studies were approved by Parker Hughes Institute Animal Care and Use Committee and all animal care procedures 1.5 conformed to the Guide for the Care and Use of Laboratory Animals (National Research Council, National Academy Press, Washington D.C. 1996, USA).
The toxicity profile of Compound 003 in CD-1 mice and Lewis rats was examined, using standard procedures as previously reported for other experimental drugs (Uckun, et al., 2003, Arzneimittelforschun. 53:357; Uckun, et al., 2002, Clin Cancer Res. 8: 1224; Uckun, et al., 2002, Antimicrob Agents Chemother. 46:3428). In brief, mice and rats were treated with intraperitoneal injections of vehicle or Compound 003 at multiple dose levels. Compound 003 was administered as a 0.2 mL (for mice) or 0.5 mL (for rats) bolus injection containing 10% DMSO as a vehicle. Animals were allowed free access to autoclaved standard pellet food and tap water throughout the experiments and monitored daily for morbidity and mortality. Animals were electively sacrificed on day 7 or day 30 to determine the toxicity of Compound 003 by examining their blood chemistry profiles, blood counts, and evaluating multiple organs for the presence of toxic lesions. Blood was collected by intracardiac puncture following anesthesia with ketamine:xylazine and immediately heparinized. The blood chemistry profiles were examined using a Synchron CX5CE Chemical Analyzer (Beckman Instruments, Inc., Fullerton, Calif., USA). Blood counts (red blood cells [RBC], white blood cells [WBC] and platelets [Plt]) were determined using a HESKA Vet ABC-Diff Hematology Analyzer (HESKA Corporation, Fort Collins, Colo., USA). Absolute neutrophil counts (ANC) and absolute lymphocyte counts (ALC) were calculated from WBC values after determining the percentages of neutrophils and lymphocytes by a manual differential count. At the time of necropsy, […] from mice (bone, bone marrow, brain, cecum, heart, kidney, large intestine, liver, lung, lymph node, ovary, pancreas, skeletal muscle, skin, small intestine, spleen, stomach, thymus, thyroid gland, urinary bladder, and uterus, as available) and 21 different tissues from rats (bone, bone marrow, brain, coagulating gland, epididymis, heart, large intestine, small intestine, kidney, liver, lung, pancreas, peripheral nerve/spinal nerve, skeletal muscle, skin, spinal cord, spleen, stomach, testes, thymus, urinary bladder) were collected within 15 minutes after sacrifice, gross pathological findings were documented, organs were preserved in 10% neutral phosphate buffered formalin, and processed for histopathological examination. For histopathologic studies, formalin fixed tissues were dehydrated and embedded in paraffin by routine methods. Glass slides with affixed 4-5 micron tissue sections were prepared and stained with Hemotoxylin and Eosin (H&E). […]

[1] = 10 mg/kg single i.p. bolus, Day 7
[2] = 10 mg/kg single i.p. bolus, Day 30
[3] = 20 mg/kg single i.p. bolus, Day 7
[4] = 20 mg/kg single i.p. bolus, Day 30
[5] = 40 mg/kg single i.p. bolus, Day 7
[6] = 40 mg/kg single i.p. bolus, Day 30
[7] = 80 mg/kg single i.p. bolus, Day 7
[8] = 80 mg/kg single i.p. bolus, Day 30

Structure (SMILES): COC(=O)C(C)NP(=O)(OCC1OC(n2cc(C)c(=O)[nH]c2=O)CC1N=[N+]=[N-])Oc1ccc(OC)cc1 (centres unmarked) [Compound 003, 3′-azidothymidine 5′-[p-methoxyphenylmethoxyalaninyl phosphate]]
- ALC [1]: 5.5 ± 0.0 ×10^9/L
- ANC [1]: 1.2 ± 0.0 ×10^9/L
- AST [1]: 137.1 ± 23.1 IU/L
- Albumin [1]: 1.5 ± 0.0 g/dL
- Ammonia [1]: 174.8 ± 11.8 µmol/L
- Amylase [1]: 1728.6 ± 248.5 U/L
- BUN [1]: 24.1 ± 0.8 mg/dL
- Calcium [1]: 8.9 ± 0.2 mg/dL
- Creatinine [1]: 0.3 ± 0.0 mg/dL
- Mean Weight Change (g ± SEM) [1]: 0.16 ± 0.15 g
- Mean Weight Change [%] [1]: (0.6 ± 0.6%)
- Morbidity [1]: 0/20
- Phosphate [1]: 6.2 ± 0.2 mg/dL
- RBC [1]: 9.4 ± 0.2 ×10^12/L
- Total Bilirubin [1]: 0.7 ± 0.1 mg/dL
- Total Protein [1]: 4.1 ± 0.1 g/dL
- Toxic Organ Lesions [1]: 0/20
- Triglycerides [1]: 158.3 ± 18.2 mg/dL
- WBC [1]: 7.3 ± 0.6 ×10^9/L
- Weight Gain [1]: 13/20
- Weight Loss [1]: 7/20
- ALC [2]: 7.5 ×10^9/L and 7.5 ± 0.0 ×10^9/L
- ANC [2]: 2.1 ± 0.0 ×10^9/L
- AST [2]: 114.0 ± 12.4 IU/L
- Albumin [2]: 1.2 ± 0.0 g/dL
- Ammonia [2]: 205.3 ± 15.6 µmol/L
- Amylase [2]: 1993.5 ± 415.9 U/L
- BUN [2]: 21.6 ± 0.7 mg/dL
- Calcium [2]: 8.2 ± 0.2 mg/dL
- Creatinine [2]: 0.3 ± 0.0 mg/dL
- Mean Weight Change (g ± SEM) [2]: 2.61 ± 0.45 g
- Mean Weight Change [%] [2]: (10.4 ± 1.8%)
- Morbidity [2]: 0/20
- Phosphate [2]: 5.7 ± 0.2 mg/dL
- RBC [2]: 9.1 ± 0.1 ×10^12/L
- Total Bilirubin [2]: 0.4 ± 0.0 mg/dL
- Total Protein [2]: 4.0 ± 0.1 g/dL
- Toxic Organ Lesions [2]: 0/20
- Triglycerides [2]: 88.1 ± 10.3 mg/dL
- WBC [2]: 9.9 ± 1.0 ×10^9/L
- Weight Gain [2]: 18/20
- Weight Loss [2]: 2/20
- ALC [3]: 6.9 ± 0.0 ×10^9/L
- ANC [3]: 1.6 ± 0.0 ×10^9/L
- AST [3]: 100.0 ± 6.7 IU/L
- Albumin [3]: 1.4 ± 0.0 g/dL
- Ammonia [3]: 201.9 ± 15.0 µmol/L
- Amylase [3]: 1810.3 ± 268.8 U/L
- BUN [3]: 23.7 ± 0.7 mg/dL
- Calcium [3]: 8.9 ± 0.1 mg/dL
- Creatinine [3]: 0.4 ± 0.0 mg/dL
- Mean Weight Change (g ± SEM) [3]: -0.04 ± 0.16 g
- Mean Weight Change [%] [3]: (−0.1 ± 0.7%)
- Morbidity [3]: 0/20
- Phosphate [3]: 6.6 ± 0.2 mg/dL
- RBC [3]: 9.0 ± 0.3 ×10^12/L
- Total Bilirubin [3]: 0.5 ± 0.1 mg/dL
- Total Protein [3]: 4.2 ± 0.1 g/dL
- Toxic Organ Lesions [3]: 0/20
- Triglycerides [3]: 144.3 ± 17.5 mg/dL
- WBC [3]: 8.7 ± 0.8 ×10^9/L
- Weight Gain [3]: 10/20
- Weight Loss [3]: 10/20
- ALC [4]: 6.8 ×10^9/L and 6.8 ± 0.0 ×10^9/L
- ANC [4]: 2.0 ± 0.0 ×10^9/L
- AST [4]: 107.8 ± 13.2 IU/L
- Albumin [4]: 1.1 ± 0.0 g/dL
- Ammonia [4]: 150.5 ± 10.3 µmol/L
- Amylase [4]: 1587.6 ± 261.5 U/L
- BUN [4]: 20.4 ± 0.6 mg/dL
- Calcium [4]: 8.1 ± 0.1 mg/dL
- Creatinine [4]: 0.3 ± 0.0 mg/dL
- Mean Weight Change (g ± SEM) [4]: 3.01 ± 0.28 g
- Mean Weight Change [%] [4]: (12.4 ± 1.1%)
- Morbidity [4]: 0/20
- Phosphate [4]: 6.2 ± 0.1 mg/dL
- RBC [4]: 9.1 ± 0.2 ×10^12/L
- Total Bilirubin [4]: 0.5 ± 0.0 mg/dL
- Total Protein [4]: 3.8 ± 0.1 g/dL
- Toxic Organ Lesions [4]: 0/20
- Triglycerides [4]: 84.6 ± 7.2 mg/dL
- WBC [4]: 9.3 ± 0.8 ×10^9/L
- Weight Gain [4]: 20/20
- Weight Loss [4]: 0/20
- tubular dilation (20 mg/kg): 2/20
- ALC [5]: 5.5 ± 0.0 ×10^9/L
- ANC [5]: 1.7 ± 0.0 ×10^9/L
- AST [5]: 134.3 ± 23.2 IU/L
- Albumin [5]: 1.5 ± 0.0 g/dL
- Ammonia [5]: 366.8 ± 23.7 µmol/L
- Amylase [5]: 1597.8 ± 100.0 U/L
- BUN [5]: 27.6 ± 0.7 mg/dL
- Calcium [5]: 8.8 ± 0.2 mg/dL
- Creatinine [5]: 0.5 ± 0.1 mg/dL
- Mean Weight Change (g ± SEM) [5]: -0.06 ± 0.21 g
- Mean Weight Change [%] [5]: (−0.2 ± 0.9%)
- Morbidity [5]: 0/20
- Phosphate [5]: 7.0 ± 0.2 mg/dL
- RBC [5]: 9.8 ± 0.3 ×10^12/L
- Total Bilirubin [5]: 0.7 ± 0.2 mg/dL
- Total Protein [5]: 4.5 ± 0.1 g/dL
- Toxic Organ Lesions [5]: 0/20
- Triglycerides [5]: 134.7 ± 21.6 mg/dL
- WBC [5]: 7.4 ± 0.7 ×10^9/L
- Weight Gain [5]: 9/20
- Weight Loss [5]: 11/20
- ALC [6]: 4.7 ×10^9/L and 4.7 ± 0.0 ×10^9/L
- ANC [6]: 1.4 ± 0.0 ×10^9/L
- AST [6]: 198.5 ± 51.8 IU/L
- Albumin [6]: 1.2 ± 0.0 g/dL
- Ammonia [6]: 139.2 ± 8.3 µmol/L
- Amylase [6]: 2153.7 ± 411.4 U/L
- BUN [6]: 20.5 ± 0.8 mg/dL
- Calcium [6]: 7.2 ± 0.2 mg/dL
- Creatinine [6]: 0.3 ± 0.0 mg/dL
- Mean Weight Change (g ± SEM) [6]: 2.34 ± 0.35 g
- Mean Weight Change [%] [6]: (9.6 ± 1.4%)
- Morbidity [6]: 0/20
- Phosphate [6]: 5.9 ± 0.3 mg/dL
- RBC [6]: 9.1 ± 0.1 ×10^12/L
- Total Bilirubin [6]: 0.5 ± 0.1 mg/dL
- Total Protein [6]: 3.9 ± 0.1 g/dL
- Toxic Organ Lesions [6]: 0/20
- Triglycerides [6]: 74.9 ± 5.0 mg/dL
- WBC [6]: 6.2 ± 0.7 ×10^9/L
- Weight Gain [6]: 18/20
- Weight Loss [6]: 2/20
- tubular dilation (40 mg/kg): 1/20
- ALC [7]: 6.7 ± 0.0 ×10^9/L
- ANC [7]: 2.4 ± 0.0 ×10^9/L
- AST [7]: 111.4 ± 7.8 IU/L
- Albumin [7]: 1.5 ± 0.1 g/dL
- Ammonia [7]: 293.1 ± 23.4 µmol/L
- Amylase [7]: 1424.6 ± 37.1 U/L
- BUN [7]: 27.7 ± 0.9 mg/dL
- Calcium [7]: 9.1 ± 0.2 mg/dL
- Creatinine [7]: 0.3 ± 0.0 mg/dL
- Mean Weight Change (g ± SEM) [7]: 0.09 ± 0.20 g
- Mean Weight Change [%] [7]: (0.4 ± 0.8%)
- Morbidity [7]: 0/20
- Phosphate [7]: 6.0 ± 0.2 mg/dL
- RBC [7]: 9.3 ± 0.2 ×10^12/L
- Total Bilirubin [7]: 0.8 ± 0.2 mg/dL
- Total Protein [7]: 4.9 ± 0.2 g/dL
- Toxic Organ Lesions [7]: 0/20
- Triglycerides [7]: 197.6 ± 34.7 mg/dL
- WBC [7]: 9.5 ± 0.9 ×10^9/L
- Weight Gain [7]: 11/20
- Weight Loss [7]: 9/20
- ALC [8]: 3.4 ×10^9/L and 3.4 ± 0.0 ×10^9/L
- ANC [8]: 1.6 ± 0.0 ×10^9/L
- AST [8]: 154.2 ± 33.8 IU/L
- Albumin [8]: 1.2 ± 0.0 g/dL
- Ammonia [8]: 178.4 ± 17.9 µmol/L
- Amylase [8]: 1397.1 ± 339.3 U/L
- BUN [8]: 26.1 ± 1.3 mg/dL
- Calcium [8]: 7.7 ± 0.2 mg/dL
- Creatinine [8]: 0.3 ± 0.0 mg/dL
- Mean Weight Change (g ± SEM) [8]: 3.24 ± 0.29 g
- Mean Weight Change [%] [8]: (13.4 ± 1.2%)
- Morbidity [8]: 0/20
- Phosphate [8]: 5.8 ± 0.4 mg/dL
- RBC [8]: 9.4 ± 0.2 ×10^12/L
- Total Bilirubin [8]: 0.6 ± 0.0 mg/dL
- Total Protein [8]: 4.1 ± 0.1 g/dL
- Toxic Organ Lesions [8]: 0/20
- Triglycerides [8]: 85.6 ± 9.5 mg/dL
- WBC [8]: 5.3 ± 0.5 ×10^9/L
- Weight Gain [8]: 20/20
- Weight Loss [8]: 0/20
- tubular dilation (80 mg/kg): 1/20
- Kidney tubular degeneration, share of drug-treated mice (40 and 80 mg/kg, following the 7 day period): ~50%
- leukopenia / lymphocyte depletion (day 30, 10-80 mg/kg): causes leukopenia in a dose-dependent fashion due to a selective depletion of lymphocytes
- overall toxicity (histologic evaluation) (doses up to and including 80mg/kg): nontoxic
- hematologic toxicity, renal toxicity, hepatotoxicity (highest dose level of 80 mg/kg/day): no evidence of hematologic toxicity renal toxicity, or hepatotoxicity
- LD10 (single i.p. bolus, not reached at highest dose): > 80 mg/kg/day
